Measurements reported in US8586034B2, “Cytomegalovirus disintegrin-like peptides” (priority 2004, dated 2013).

Assays:
HCMV AD 169 = assay: Virus binding assay (HCMV attachment, gB ELISA); type: cell-based, Human cytomegalovirus; conditions: NHDF, 4° C.; 1 mM gB disintegrin-like peptide, 1:50 DE9, α2 and α6 integrin antibodies 20 μg/mL
Experimental: NHDF cells were grown in 96-well plates and treated with integrin-neutralizing antibodies, peptides, or heparin for 60 minutes at 4° C. Cells were then challenged with HCMV AD 169 at a multiplicity of infection (MOI) of 5 pfu/cell for 60 minutes at 4° C. Unbound virus was removed and cells were washed and fixed with 3% paraformaldehyde. Bound HCMV was detected with monoclonal antibody 27-78, horseradish peroxidase (HRP)-conjugated goat anti-mouse secondary antibody, and ImmunoPure TMB Substrate Kit (Pierce, Rockford, Ill.). Absorbance was measured at 450 nm. All experiments were performed in triplicate.
During virus infection, integrins are utilized as primary viral attachment receptors or as post-attachment (fusion-activating) or internalization receptors.^11 To determine at which step in the HCMV entry pathway integrins are functioning, cell binding (i.e., attachment) experiments were performed, as well as assays to measure viral payload delivery into the cytoplasm (internalization). For the binding assays, virus was bound at 4° C. to allow for stable virus binding, but to restrict fusion and internalization. The results are depicted in FIG. 6A. […] Attachment was measured by gB ELISA.

diI-labeled HCMV = type: cell-based, Human cytomegalovirus; conditions: gBDLD or BSA 320 μg/mL, soluble heparin 50 μg/mL; 24 hours post-infection
HCMV strain AD169 = assay: Virus entry assay, HCMV infectivity by IE gene expression; type: cell-based, Human cytomegalovirus; conditions: NHDFs treated prior to HCMV challenge
Experimental: (§1) For CMV entry assays, subconfluent cells were grown on glass coverslips in 12-well plates. Integrin neutralizing antibodies or peptides were incubated in serum-free DMEM with cell monolayer for 30 minutes at 37° C. Cells were washed with phosphate-buffered saline (PBS) and incubated with HCMV strain AD169, MCMV Smith strain, or MCMV-GFP for 60 minutes at 37° C. Any non-penetrated virus was inactivated with low-pH citrate buffer (40 mM citric acid, 10 mM KCl, 135 mM NaCl, pH 3.0). The cells were incubated 20-24 hours at 37° C. in DMEM supplemented with 2% bovine calf serum (BCS). […] Experiments were performed in triplicate with a minimum of 1000 cells scored per coverslip. […] Cells were incubated 6 hours at 37° C. in DMEM supplemented with 10% BCS prior to lysis (100 mM sodium phosphate, 10 mM KCl, 1 mM magnesium sulfate, 0.1% NP-40, pH 7.4). β-galactosidase activity was measured by addition of o-nitrophenyl-β-D-galactopyranoside (ONPG) and the absorbance was monitored at 420 nm.
FIG. 2A presents the results of a series of assays wherein NHDFs were treated with HCMV gB disintegrin-like peptide, gB disintegrin-like Null peptide, RGD, or RGE peptide prior to HCMV challenge (as indicated in the FIG. 2A). Infectivity was determined by IE gene expression. […]

MCMV Smith strain = assay: Virus entry assay, MCMV infectivity by e1-positive cells; type: cell-based, Murine cytomegalovirus; conditions: mouse fibroblasts (murine 3T3) treated with peptide
Experimental: as §1, with “nm. […]” for “nm.”
FIG. 4B is a histogram showing the results of an assay wherein GD25, GD25β1 and 3T3 cells were treated with β1, β3, and β1+β3 antibodies, followed by MCMV infection. As described above, infectivity was determined by scoring e1-(early protein) positive cells. […]

HSV-1(KOS)gL86 = assay: HSV entry assay (β-galactosidase activity); type: cell-based, herpes simplex virus-1; conditions: NHDF cells treated with peptide
Experimental: For CMV entry assays, subconfluent cells were grown on glass coverslips in 12-well plates. Integrin neutralizing antibodies or peptides were incubated in serum-free DMEM with cell monolayer for 30 minutes at 37° C. Cells were washed with phosphate-buffered saline (PBS) and incubated with HCMV strain AD169, MCMV Smith strain, or MCMV-GFP for 60 minutes at 37° C. Any non-penetrated virus was inactivated with low-pH citrate buffer (40 mM citric acid, 10 mM KCl, 135 mM NaCl, pH 3.0). The cells were incubated 20-24 hours at 37° C. in DMEM supplemented with 2% bovine calf serum (BCS). Immunofluorescence analysis was performed as previously described^28 with either mouse anti-IE monoclonal antibody 1203, mouse anti-pp65 monoclonal antibody or rabbit anti-MCMV e1 polyclonal, followed by detection with a fluorescein-conjugated goat anti-mouse secondary or a fluorescein-conjugated goat anti-rabbit secondary antibody. Nuclei were stained with 300 nM 4′,6-diamidino-2-phenylindole (DAPI). Experiments were performed in triplicate with a minimum of 1000 cells scored per coverslip. […] Cells were incubated 6 hours at 37° C. in DMEM supplemented with 10% BCS prior to lysis (100 mM sodium phosphate, 10 mM KCl, 1 mM magnesium sulfate, 0.1% NP-40, pH 7.4). β-galactosidase activity was measured by addition of o-nitrophenyl-β-D-galactopyranoside (ONPG) and the absorbance was monitored at 420 nm. […]

HCMV = assay: Viral payload delivery, pp65 localization; type: cell-based, Human cytomegalovirus; conditions: human fibroblasts treated, then infected with HCMV
Experimental: as §1
Next, an assay was performed that directly measured delivery of an internal virion component. […] FIG. 6B is a histogram showing the results of a series of assays wherein human fibroblasts were treated with various integrin-blocking agents, infected with HCMV, and then assayed for viral payload as measured by pp65 localization. […]

heparin [soluble heparin, reference compound]
HCMV attachment (gB ELISA) (HCMV AD 169): prevented virus attachment
HCMV fusion (dye transfer) and gene expression (diI-labeled HCMV): blocks HCMV attachment

RVCSMAQGTDLIRFERNIIC (listed as Human cytomegalovirus) [gB disintegrin-like peptide, synthetic 20 amino acid peptide encompassing the HCMV gB disintegrin-like domain]
HCMV infectivity (IE gene expression) (HCMV strain AD169): dose-dependent inhibitory response
MCMV infectivity (MCMV Smith strain): dramatic reduction in MCMV infectivity
ability of HSV-1 to infect cells (HSV-1(KOS)gL86): no effect
HCMV attachment (gB ELISA) (HCMV AD 169): no effect
uptake of pp65 tegument protein (HCMV): little uptake

AVCSMAGGTAAIRAERNIIC (listed as Human cytomegalovirus) [gB disintegrin-like null peptide, null peptide with alanine substitutions in the disintegrin-like consensus residues, reference compound]
HCMV infectivity (IE gene expression) (HCMV strain AD169): able to infect
uptake of pp65 tegument protein (HCMV): not
